{
  "source": "patent US9006250B2",
  "about": "“4-amino-6-(heterocyclic)picolinates and 6-amino-2-(heterocyclic)pyrimidine-4-carboxylates and their use as herbicides” (Dow AgroSciences, LLC, priority 2013, dated 2015)",
  "data": [
    {"system": "not given", "assay": "not given", "details": "not given", "units": {"melting point": "°C"}, "values": [
      {"molecule": "COC(=O)c1nc(-c2cc3nonc3cc2F)cc(N)c1Cl", "note": "[Compound 4, Methyl 4-amino-3-chloro-6-(6-fluorobenzo[c][1,2,5]oxadiazol-5-yl)picolinate]", "melting point": "199 to 201"}
    ]},
    {"system": "AMARE: redroot pigweed (Amaranthus retroflexus)", "assay": "Post-Emergent Test II herbicidal activity", "type": "in vivo", "details": "post-emergence, 336 h, 35 g ai/ha, 14 days, read-out: Visual Growth Reduction (%) 14 Days After Application AMARE", "outline": "(§1)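 Test species are sprayed post-emergence when they reach the first or second true leaf, using an aqueous acetone/DMSO spray with crop oil and surfactant delivered at 187 L/ha. Plants are kept in the greenhouse with subirrigation, and damage compared with untreated plants is rated visually at 14 d on a 0-100% scale.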", "units": {"pest or weed control at 35 g/ha": "%"}, "values": [
      {"molecule": "COC(=O)c1nc(-c2cc3nonc3cc2F)cc(N)c1Cl", "note": "[Compound 4, Methyl 4-amino-3-chloro-6-(6-fluorobenzo[c][1,2,5]oxadiazol-5-yl)picolinate]", "pest or weed control at 35 g/ha": "95 to 100"}
    ]},
    {"system": "AMARE: redroot pigweed (Amaranthus retroflexus)", "assay": "Post-Emergent Test II herbicidal activity", "type": "in vivo", "details": "post-emergence, 336 h, 70 g ai/ha, 14 days, read-out: Visual Growth Reduction (%) 14 Days After Application AMARE", "outline": "as §1", "units": {"pest or weed control at 70 g/ha": "%"}, "values": [
      {"molecule": "COC(=O)c1nc(-c2cc3nonc3cc2F)cc(N)c1Cl", "note": "[Compound 4, Methyl 4-amino-3-chloro-6-(6-fluorobenzo[c][1,2,5]oxadiazol-5-yl)picolinate]", "pest or weed control at 70 g/ha": "95 to 100"}
    ]},
    {"system": "AMARE: redroot pigweed (Amaranthus retroflexus)", "assay": "Post-Emergent Test II herbicidal activity", "type": "in vivo", "details": "post-emergence, 336 h, 140 g ai/ha, 14 days, read-out: Visual Growth Reduction (%) 14 Days After Application AMARE", "outline": "as §1", "units": {"pest or weed control at 140 g/ha": "%"}, "values": [
      {"molecule": "COC(=O)c1nc(-c2cc3nonc3cc2F)cc(N)c1Cl", "note": "[Compound 4, Methyl 4-amino-3-chloro-6-(6-fluorobenzo[c][1,2,5]oxadiazol-5-yl)picolinate]", "pest or weed control at 140 g/ha": "95 to 100"}
    ]},
    {"system": "SETFA: giant foxtail (Setaria faberi)", "assay": "Post-Emergent Test II herbicidal activity", "type": "in vivo", "details": "post-emergence, 336 h, 35 g ai/ha, 14 days, read-out: Visual Growth Reduction (%) 14 Days After Application SETFA", "outline": "as §1", "units": {"pest or weed control at 35 g/ha": "%"}, "values": [
      {"molecule": "COC(=O)c1nc(-c2cc3nonc3cc2F)cc(N)c1Cl", "note": "[Compound 4, Methyl 4-amino-3-chloro-6-(6-fluorobenzo[c][1,2,5]oxadiazol-5-yl)picolinate]", "pest or weed control at 35 g/ha": "60 to 74"}
    ]},
    {"system": "SETFA: giant foxtail (Setaria faberi)", "assay": "Post-Emergent Test II herbicidal activity", "type": "in vivo", "details": "post-emergence, 336 h, 70 g ai/ha, 14 days, read-out: Visual Growth Reduction (%) 14 Days After Application SETFA", "outline": "as §1", "units": {"pest or weed control at 70 g/ha": "%"}, "values": [
      {"molecule": "COC(=O)c1nc(-c2cc3nonc3cc2F)cc(N)c1Cl", "note": "[Compound 4, Methyl 4-amino-3-chloro-6-(6-fluorobenzo[c][1,2,5]oxadiazol-5-yl)picolinate]", "pest or weed control at 70 g/ha": "60 to 74"}
    ]},
    {"system": "SETFA: giant foxtail (Setaria faberi)", "assay": "Post-Emergent Test II herbicidal activity", "type": "in vivo", "details": "post-emergence, 336 h, 140 g ai/ha, 14 days, read-out: Visual Growth Reduction (%) 14 Days After Application SETFA", "outline": "as §1", "units": {"pest or weed control at 140 g/ha": "%"}, "values": [
      {"molecule": "COC(=O)c1nc(-c2cc3nonc3cc2F)cc(N)c1Cl", "note": "[Compound 4, Methyl 4-amino-3-chloro-6-(6-fluorobenzo[c][1,2,5]oxadiazol-5-yl)picolinate]", "pest or weed control at 140 g/ha": "60 to 74"}
    ]},
    {"system": "CYPES: yellow nutsedge (Cyperus esculentus)", "assay": "Post-Emergent Test II herbicidal activity", "type": "in vivo", "details": "post-emergence, 336 h, 35 g ai/ha, 14 days, read-out: Visual Growth Reduction (%) 14 Days After Application CYPES", "outline": "as §1", "units": {"pest or weed control at 35 g/ha": "%"}, "values": [
      {"molecule": "COC(=O)c1nc(-c2cc3nonc3cc2F)cc(N)c1Cl", "note": "[Compound 4, Methyl 4-amino-3-chloro-6-(6-fluorobenzo[c][1,2,5]oxadiazol-5-yl)picolinate]", "pest or weed control at 35 g/ha": "95 to 100"}
    ]},
    {"system": "CYPES: yellow nutsedge (Cyperus esculentus)", "assay": "Post-Emergent Test II herbicidal activity", "type": "in vivo", "details": "post-emergence, 336 h, 70 g ai/ha, 14 days, read-out: Visual Growth Reduction (%) 14 Days After Application CYPES", "outline": "as §1", "units": {"pest or weed control at 70 g/ha": "%"}, "values": [
      {"molecule": "COC(=O)c1nc(-c2cc3nonc3cc2F)cc(N)c1Cl", "note": "[Compound 4, Methyl 4-amino-3-chloro-6-(6-fluorobenzo[c][1,2,5]oxadiazol-5-yl)picolinate]", "pest or weed control at 70 g/ha": "95 to 100"}
    ]},
    {"system": "CYPES: yellow nutsedge (Cyperus esculentus)", "assay": "Post-Emergent Test II herbicidal activity", "type": "in vivo", "details": "post-emergence, 336 h, 140 g ai/ha, 14 days, read-out: Visual Growth Reduction (%) 14 Days After Application CYPES", "outline": "as §1", "units": {"pest or weed control at 140 g/ha": "%"}, "values": [
      {"molecule": "COC(=O)c1nc(-c2cc3nonc3cc2F)cc(N)c1Cl", "note": "[Compound 4, Methyl 4-amino-3-chloro-6-(6-fluorobenzo[c][1,2,5]oxadiazol-5-yl)picolinate]", "pest or weed control at 140 g/ha": "95 to 100"}
    ]},
    {"system": "HELAN: sunflower (Helianthus annuus)", "assay": "Post-Emergent Test II herbicidal activity", "type": "in vivo", "details": "post-emergence, 336 h, 35 g ai/ha, 14 days, read-out: Visual Growth Reduction (%) 14 Days After Application HELAN", "outline": "as §1", "units": {"pest or weed control at 35 g/ha": "%"}, "values": [
      {"molecule": "COC(=O)c1nc(-c2cc3nonc3cc2F)cc(N)c1Cl", "note": "[Compound 4, Methyl 4-amino-3-chloro-6-(6-fluorobenzo[c][1,2,5]oxadiazol-5-yl)picolinate]", "pest or weed control at 35 g/ha": "85 to 94"}
    ]},
    {"system": "HELAN: sunflower (Helianthus annuus)", "assay": "Post-Emergent Test II herbicidal activity", "type": "in vivo", "details": "post-emergence, 336 h, 70 g ai/ha, 14 days, read-out: Visual Growth Reduction (%) 14 Days After Application HELAN", "outline": "as §1", "units": {"pest or weed control at 70 g/ha": "%"}, "values": [
      {"molecule": "COC(=O)c1nc(-c2cc3nonc3cc2F)cc(N)c1Cl", "note": "[Compound 4, Methyl 4-amino-3-chloro-6-(6-fluorobenzo[c][1,2,5]oxadiazol-5-yl)picolinate]", "pest or weed control at 70 g/ha": "85 to 94"}
    ]},
    {"system": "HELAN: sunflower (Helianthus annuus)", "assay": "Post-Emergent Test II herbicidal activity", "type": "in vivo", "details": "post-emergence, 336 h, 140 g ai/ha, 14 days, read-out: Visual Growth Reduction (%) 14 Days After Application HELAN", "outline": "as §1", "units": {"pest or weed control at 140 g/ha": "%"}, "values": [
      {"molecule": "COC(=O)c1nc(-c2cc3nonc3cc2F)cc(N)c1Cl", "note": "[Compound 4, Methyl 4-amino-3-chloro-6-(6-fluorobenzo[c][1,2,5]oxadiazol-5-yl)picolinate]", "pest or weed control at 140 g/ha": "85 to 94"}
    ]},
    {"system": "BRSNN: oilseed rape, canola (Brassica napus)", "assay": "Post-Emergent Test II herbicidal activity", "type": "in vivo", "details": "post-emergence, 336 h, 35 g ai/ha, 14 days, read-out: Visual Growth Reduction (%) 14 Days After Application BRSNN", "outline": "as §1", "units": {"pest or weed control at 35 g/ha": "%"}, "values": [
      {"molecule": "COC(=O)c1nc(-c2cc3nonc3cc2F)cc(N)c1Cl", "note": "[Compound 4, Methyl 4-amino-3-chloro-6-(6-fluorobenzo[c][1,2,5]oxadiazol-5-yl)picolinate]", "pest or weed control at 35 g/ha": "85 to 94"}
    ]},
    {"system": "BRSNN: oilseed rape, canola (Brassica napus)", "assay": "Post-Emergent Test II herbicidal activity", "type": "in vivo", "details": "post-emergence, 336 h, 70 g ai/ha, 14 days, read-out: Visual Growth Reduction (%) 14 Days After Application BRSNN", "outline": "as §1", "units": {"pest or weed control at 70 g/ha": "%"}, "values": [
      {"molecule": "COC(=O)c1nc(-c2cc3nonc3cc2F)cc(N)c1Cl", "note": "[Compound 4, Methyl 4-amino-3-chloro-6-(6-fluorobenzo[c][1,2,5]oxadiazol-5-yl)picolinate]", "pest or weed control at 70 g/ha": "95 to 100"}
    ]},
    {"system": "BRSNN: oilseed rape, canola (Brassica napus)", "assay": "Post-Emergent Test II herbicidal activity", "type": "in vivo", "details": "post-emergence, 336 h, 140 g ai/ha, 14 days, read-out: Visual Growth Reduction (%) 14 Days After Application BRSNN", "outline": "as §1", "units": {"pest or weed control at 140 g/ha": "%"}, "values": [
      {"molecule": "COC(=O)c1nc(-c2cc3nonc3cc2F)cc(N)c1Cl", "note": "[Compound 4, Methyl 4-amino-3-chloro-6-(6-fluorobenzo[c][1,2,5]oxadiazol-5-yl)picolinate]", "pest or weed control at 140 g/ha": "95 to 100"}
    ]},
    {"system": "EPHHL: wild poinsettia (Euphorbia heterophylla)", "assay": "Post-Emergent Test II herbicidal activity", "type": "in vivo", "details": "post-emergence, 336 h, 35 g ai/ha, 14 days, read-out: Visual Growth Reduction (%) 14 Days After Application EPHHL", "outline": "as §1", "units": {"pest or weed control at 35 g/ha": "%"}, "values": [
      {"molecule": "COC(=O)c1nc(-c2cc3nonc3cc2F)cc(N)c1Cl", "note": "[Compound 4, Methyl 4-amino-3-chloro-6-(6-fluorobenzo[c][1,2,5]oxadiazol-5-yl)picolinate]", "pest or weed control at 35 g/ha": "95 to 100"}
    ]},
    {"system": "EPHHL: wild poinsettia (Euphorbia heterophylla)", "assay": "Post-Emergent Test II herbicidal activity", "type": "in vivo", "details": "post-emergence, 336 h, 70 g ai/ha, 14 days, read-out: Visual Growth Reduction (%) 14 Days After Application EPHHL", "outline": "as §1", "units": {"pest or weed control at 70 g/ha": "%"}, "values": [
      {"molecule": "COC(=O)c1nc(-c2cc3nonc3cc2F)cc(N)c1Cl", "note": "[Compound 4, Methyl 4-amino-3-chloro-6-(6-fluorobenzo[c][1,2,5]oxadiazol-5-yl)picolinate]", "pest or weed control at 70 g/ha": "95 to 100"}
    ]}
  ]
}
